From ChEMBL document CHEMBL4325876, “Novel 3-(2,6,9-trisubstituted-9H-purine)-8-chalcone derivatives as potent anti-gastric cancer agents: Design, synthesis and structural optimization” (Eur J Med Chem, 2019)
Activity calls are given as the source filed them. No cut-off for these calls is given here.

How the values were obtained:
A549 = assay: Cytotoxicity against human A549 cells assessed as inhibition of cell proliferation after 72 hrs by MTT assay; assay type: functional, cell-based; conditions: A549, 72 h
MGC-803 [1] = assay: Cytotoxicity against human MGC803 cells assessed as inhibition of cell proliferation after 72 hrs by MTT assay; assay type: functional, cell-based; conditions: MGC-803, 72 h
TE-1 = assay: Cytotoxicity against human TE1 cells assessed as inhibition of cell proliferation after 72 hrs by MTT assay; assay type: functional, cell-based; conditions: TE-1, 72 h
THP-1 = assay: Cytotoxicity against human THP1 cells assessed as inhibition of cell proliferation after 72 hrs by MTT assay; assay type: functional, cell-based; conditions: THP-1, 72 h
MGC-803 [2] = assay: Induction of apoptosis in human MGC803 cells assessed as decrease in Bcl2 expression at 0.25 to 1 uM after 72 hrs by Western blot analysis; assay type: functional, cell-based
MGC-803 [3] = assay: Antiinvasive activity in human MGC803 cells after 72 hrs by Hoechst 33258 staining based matrigel coated transwell assay; assay type: functional, cell-based
MGC-803 [4] = assay: Inhibition of colony formation in human MGC803 cells after 7 days by crystal violet staining based assay; assay type: functional, cell-based
MGC-803 [5] = assay: Induction of apoptosis in human MGC803 cells assessed as increase in cleaved caspase-9 level after 72 hrs by Western blot analysis; assay type: functional, cell-based
MGC-803 [6] = assay: Induction of apoptosis in human MGC803 cells assessed as formation of apoptotic bodies at 0.25 to 1 uM after 72 hrs by Hoechst 33258 staining based fluorescence microscopic method; assay type: functional, cell-based
[7] = Selectivity index, ratio of IC50 for human GES-1 cells to IC50 for human MGC803 cells; assay type: toxicity; conditions: GES-1 cells versus MGC803 cells, read-out: Ratio IC50
MGC-803 [8] = assay: Induction of apoptosis in human MGC803 cells assessed as increase in Bax expression at 0.25 to 1 uM after 72 hrs by Western blot analysis; assay type: functional, cell-based
MGC-803 [9] = assay: Induction of apoptosis in human MGC803 cells assessed as increase in cleaved caspase-8 level after 72 hrs by Western blot analysis; assay type: functional, cell-based
MGC-803 [10] = assay: Induction of apoptosis in human MGC803 cells assessed as cell rounding at 0.25 to 1 uM after 72 hrs by Hoechst 33258 staining based fluorescence microscopic method; assay type: functional
MGC-803 [11] = assay: Induction of apoptosis in human MGC803 cells assessed as increase in cleaved PARP level after 72 hrs by Western blot analysis; assay type: functional, cell-based
GES1 = assay: Cytotoxicity against human GES-1 cells assessed as inhibition of cell proliferation after 72 hrs by MTT assay; assay type: cell-based; conditions: GES1, 72 h
MGC-803 [12] = assay: Induction of apoptosis in human MGC803 cells assessed as increase in cleaved caspase-3 level after 72 hrs by Western blot analysis; assay type: functional, cell-based
MGC-803 [13] = assay: Induction of apoptosis in human MGC803 cells assessed as chromatin shrinkage at 0.25 to 1 uM after 72 hrs by Hoechst 33258 staining based fluorescence microscopic method; assay type: functional, cell-based
MGC-803 [14] = assay: Induction of apoptosis in human MGC803 cells after 72 hrs by Annexin V-FITC/propidium iodide staining based flow cytometry; assay type: functional, cell-based
MGC-803 [15] = assay: Antimigratory activity in human MGC803 cells at 0.25 to 1 uM after 72 hrs by wound healing assay; assay type: functional, cell-based
MGC-803 [16] = assay: Induction of apoptosis in human MGC803 cells assessed as apoptotic cells at 1 uM after 72 hrs by Annexin V-FITC/propidium iodide staining based flow cytometry (reference value: 0.6%); assay type: functional
MGC-803 [17] = assay: Antimigratory activity in human MGC803 cells at 0.25 to 1 uM after 72 hrs by Hoechst 33258 staining based transwell assay; assay type: functional, cell-based

SMILES: CCCSc1nc(N2CCOCC2)c2nc(CCc3ccccc3)n(Cc3ccccc3)c2n1
- IC50 (A549): > 32 µM
- IC50 (MGC-803 [1]): > 32 µM

SMILES: CCCSc1nc(N2CCOCC2)c2nc(/C=C/C(=O)c3ccc(C)cc3)n(CC3CCCCC3)c2n1
- IC50 (TE-1): 8.43 µM
- IC50 (THP-1): 3.83 µM
- IC50 (A549): 10.5 µM
- IC50 (MGC-803 [1]): 4.02 µM

SMILES: CCCSc1nc(N2CCOCC2)c2nc(/C=C/C(=O)c3ccc(C)cc3)n(Cc3ccccc3)c2n1
- IC50 (TE-1): 3.63 µM
- IC50 (THP-1): 2.76 µM
- IC50 (A549): 4.9 µM
- IC50 (MGC-803 [1]): 1.55 µM

SMILES: CCCSc1nc(N2CCOCC2)c2nc(/C=C/C(=O)c3ccc(Cl)cc3)n(Cc3ccccc3)c2n1
- IC50 (TE-1): 19.1 µM
- IC50 (THP-1): 3.71 µM
- IC50 (A549): 17.1 µM
- IC50 (MGC-803 [1]): 8.32 µM

SMILES: CCCSc1nc(N2CCOCC2)c2nc(/C=C/C(=O)c3ccc(C)cc3)n(CCCc3ccccc3)c2n1
- Activity (MGC-803 [2]): Active
- Activity (MGC-803 [3]): Dose-dependent effect
- inhibition (MGC-803 [4]): Dose-dependent effect
- Activity (MGC-803 [5]): Dose-dependent effect
- Activity (MGC-803 [6]): Active
- selectivity ratio [7]: 27.8
- Activity (MGC-803 [8]): Active
- Activity (MGC-803 [9]): Dose-dependent effect
- Activity (MGC-803 [10]): Active
- Activity (MGC-803 [11]): Dose-dependent effect
- IC50 (TE-1): 8.52 µM
- IC50 (THP-1): 26.2 µM
- IC50 (GES1): 23.4 µM
- Activity (MGC-803 [12]): Dose-dependent effect
- IC50 (A549): 2.11 µM
- Activity (MGC-803 [13]): Active
- Activity (MGC-803 [14]): Dose-dependent effect
- Activity (MGC-803 [15]): Active
- Activity (MGC-803 [16]): 86.3%
- IC50 (MGC-803 [1]): 0.84 µM
- Activity (MGC-803 [17]): Active

SMILES: CCCSc1nc(N2CCOCC2)c2nc(/C=C/C(=O)c3ccc(Br)cc3)n(Cc3ccccc3)c2n1
- IC50 (TE-1): 13.3 µM
- IC50 (THP-1): 11.4 µM
- IC50 (A549): 10.7 µM
- IC50 (MGC-803 [1]): 3.41 µM

SMILES: CCCSc1nc(N2CCOCC2)c2nc(/C=C/C(=O)c3ccc(-c4ccccc4)cc3)n(Cc3ccccc3)c2n1
- IC50 (TE-1): > 32 µM
- IC50 (THP-1): > 32 µM
- IC50 (A549): > 32 µM
- IC50 (MGC-803 [1]): > 32 µM

SMILES: CCCSc1nc(N2CCOCC2)c2nc(-c3ccccc3)n(Cc3ccccc3)c2n1
- IC50 (A549): > 32 µM
- IC50 (MGC-803 [1]): > 32 µM

SMILES: CCCSc1nc(N2CCOCC2)c2nc(/C=C/C(=O)c3ccc(OC)cc3)n(Cc3ccccc3)c2n1
- IC50 (TE-1): 5.87 µM
- IC50 (THP-1): 2.52 µM
- IC50 (A549): 7.63 µM
- IC50 (MGC-803 [1]): 3.1 µM

SMILES: CCCSc1nc(N2CCOCC2)c2nc(/C=C/C(=O)c3ccccc3)n(Cc3ccccc3)c2n1
- selectivity ratio [7]: 7.5
- IC50 (TE-1): 7.38 µM
- IC50 (THP-1): 1.41 µM
- IC50 (GES1): 35.6 µM
- IC50 (A549): 14.9 µM
- IC50 (MGC-803 [1]): 4.74 µM

SMILES: CCCSc1nc(Cl)c2c(n1)N(Cc1ccccc1)C(C(=O)NCCCc1ccccc1)N2 (stereo not drawn)
- inhibition (MGC-803 [4]): Active
- selectivity ratio [7]: 1.5
- IC50 (GES1): 24.9 µM

SMILES: CCCSc1nc(N2CCOCC2)c2nc(/C=C/c3ccccc3)n(Cc3ccccc3)c2n1
- IC50 (A549): > 32 µM
- IC50 (MGC-803 [1]): 30.5 µM

SMILES: CCCSc1nc(N2CCOCC2)c2nc(/C=C/C(=O)c3cccc(OC)n3)n(Cc3ccccc3)c2n1
- IC50 (TE-1): 10.7 µM
- IC50 (THP-1): 9.73 µM
- IC50 (A549): > 32 µM
- IC50 (MGC-803 [1]): 8.62 µM

SMILES: CCCSc1nc(N2CCCCC2)c2nc(/C=C/C(=O)c3ccc(C)cc3)n(Cc3ccccc3)c2n1
- IC50 (TE-1): > 32 µM
- IC50 (THP-1): > 32 µM
- IC50 (A549): > 32 µM
- IC50 (MGC-803 [1]): 15.7 µM

SMILES: CCCSc1nc(N2CCOCC2)c2nc(/C=C/C(=O)c3ccc4ccccc4c3)n(Cc3ccccc3)c2n1
- IC50 (TE-1): 23.8 µM
- IC50 (THP-1): > 32 µM
- IC50 (A549): 28.1 µM
- IC50 (MGC-803 [1]): 7.75 µM

SMILES: CCCSc1nc(N2CCOCC2)c2nc(/C=C/C(=O)c3ccc(OC)c(OC)c3)n(Cc3ccccc3)c2n1
- IC50 (TE-1): 8.56 µM
- IC50 (THP-1): > 32 µM
- IC50 (A549): 9.74 µM
- IC50 (MGC-803 [1]): 4.91 µM

SMILES: CCCSc1nc(N2CCOCC2)c2nc(/C=C/C(=O)c3cc(OC)c(OC)c(OC)c3)n(Cc3ccccc3)c2n1
- IC50 (TE-1): 9.93 µM
- IC50 (THP-1): > 32 µM
- IC50 (A549): > 32 µM
- IC50 (MGC-803 [1]): 6.52 µM

SMILES: CCCSc1nc(NCc2ccccc2)c2nc(/C=C/C(=O)c3ccc(C)cc3)n(Cc3ccccc3)c2n1
- IC50 (TE-1): > 32 µM
- IC50 (THP-1): > 32 µM
- IC50 (A549): 30.1 µM
- IC50 (MGC-803 [1]): 12.4 µM

SMILES: CCCSc1nc(N2CCOCC2)c2nc(/C=C/C(=O)c3ccccc3Cl)n(Cc3ccccc3)c2n1
- IC50 (TE-1): 4.87 µM
- IC50 (THP-1): 9.73 µM
- IC50 (A549): 9.19 µM
- IC50 (MGC-803 [1]): 2.41 µM
